The results in this text go back to patent US7990502B2, “Liquid-crystal display device” (Fujifilm Corporation, priority 2007, dated 2011).

The term logP denotes the decadic logarithm of the partition coefficient of the neutral form, usually between octanol and water. Lower therefore signals lower lipophilicity.

This series is described as follows: log P value (octanol-water partition coefficient) of the compound capable of mending the humidity dependence. The class given is physicochemical. Particulars: octanol-water partition coefficient of the humidity-dependence mending compound used in the second retardation film. From the text:
Log P of the compound capable of mending the humidity dependence for use in the invention is preferably from 3 to 10, more preferably from 3 to 7. Using the compound capable of mending the humidity dependence having log P that falls within the above range may reduce the humidity dependence of Re not causing a face condition trouble such as bleeding out, etc.
The log P value means an octanol-water partition coefficient, and it may be determined according to the flask shaking method described in JIS (Japanese Industrial Standards) Z7260-107 (2000). In place of determining it through actual measurement, the octanol-water partition coefficient (log P value) may be estimated according to a computational chemical method or an experimental method. As the computational method, preferably employed are a Crippen's fragmentation method (J. Chem. Inf. Comput. Sci., 27, 21 (1987)), a Viswanadhan's fragmentation method (J. Chem. Inf. Comput. Sci., 29, 163 (1989)), a Broto's fragmentation method (Eur. J. Med. Chem.-Chim. Theor., 19, 71 (1984)). Particularly, the Crippen's fragmentation method (J. Chem. Inf. Comput. Sci., 27, 21 (1987)) is preferably employed. In case where the log P value of a certain compound differs depending on the measurement method or the computational method employed, the compound is preferably judged according to a Crippen's fragmentation method as to whether or not it could fall within the preferred range.
`O=C(Oc1ccccc1)[C@H]1CC[C@H](C(=O)Oc2ccccc2)CC1` [Compound A-1] gave a logP of 3.7. `CCc1ccc(OC(=O)[C@H]2CC[C@H](C(=O)Oc3ccc(CC)cc3)CC2)cc1` [Compound A-3] registered a logP of 5.8.

In the case of `Cc1ccc(OC(=O)[C@H]2CC[C@H](C(=O)Oc3ccc(C)cc3C)CC2)c(C)c1` [Compound A-6], the logP stood at 5.7. Then `CCCCCCCc1ccc(OC(=O)[C@H]2CC[C@H](C(=O)Oc3ccc(CCCCCCC)cc3)CC2)cc1` [D], with 11.
